Data from publication PMC10950972, “Relative bioavailability of fedratinib through various alternative oral administration methods in healthy adults” (Cancer Chemotherapy and Pharmacology, 2023).
Where two headings read alike, the source gives them in different places. Marks after values point to notes of the source that are not given here.

Assays:
[1] = Phase 1 relative bioavailability study part 1: plasma pharmacokinetics of fedratinib (2-period crossover); format: in vivo, human; settings: for AUC(0-t) / AUC(0-inf) / Cmax / Tmax / half-life: human, plasma, po, 400 mg; for half-life: read-out: t½, mean (SD) (converted)
Procedure: Study part 1 was a 2-period, 2-sequence, open-label, crossover design (Fig. 1A). Treatment 1A (reference) consisted of fedratinib 400 mg (4 × 100-mg capsules) administered orally along with approximately 180 mL of a commercially available nutritional supplement (ie, Ensure Plus). Treatment 1B (test) consisted of fedratinib 400 mg dispersed in a nutritional supplement and administered orally. Participants were randomized to receive treatment in one of the following sequences: 1A–1B or 1B–1A. […] No food or beverages (except water and any nutritional supplement administered with the treatment) were allowed for at least 4 h after dosing.
(§1) Approximately 1 h before each fedratinib administration, ondansetron oral tablet (film coated) 8 mg was given orally to reduce the potential for fedratinib-related nausea and vomiting. There was a washout period of at least 12 days between each dose of fedratinib. The duration from screening through the follow-up phone call was approximately 10 weeks. Participants resided at the clinical site from days -1 to 23 (study part 1), or days -1 to 35 (study part 2). If a participant discontinued from the study for any reason, an early termination visit was performed, with only the safety assessments scheduled for the day of discharge taking place. Additionally, each participant who discontinued also received a follow-up phone call 4 (± 2) days after completion of the early termination visit.
(§2) For study part 1, and part 2 treatments 2A and 2B, blood samples were collected pre-dose (0 h) and at 0.5, 1, 1.5, 2, 3, 4, 6, 8, 12, 24, 48, 72, 120, 168, 192, and 240 h post-dose. For treatment 2C, blood samples were collected pre-dose (0 h) and at 0.5, 1, 1.5, 2, 3, 4, 6, 8, 12, 12.5, 13, 13.5, 14, 15, 16, 18, 24, 48, 72, 120, 168, 192, and 240 h post-dose of the first dose. The plasma concentration of fedratinib was measured using a validated liquid chromatography-tandem mass spectrometry assay with a lower limit of quantification of 1.00 ng/mL [12, 20].
(§3) Plasma PK parameters were calculated using noncompartmental methods by a validated PK analysis program (Phoenix® WinNonlin®, v8.3.4 [Certara USA, Inc., Princeton, NJ, USA]) using actual times. The PK parameters determined for fedratinib Cmax, Tmax, AUC from time 0 to the time of the last quantifiable concentration (AUC0–t), AUC from time 0 to infinity (AUC0–∞), and t½. Additionally for treatment 2C, Cmax and Tmax were estimated after both the first dose (Cmax and Tmax) and the second dose (Cmax2 and Tmax2). AUC0–t and AUC0–∞ were estimated from time 0 (the first dose) through 240 h after the first dose. AUC parameters were calculated using the linear-log trapezoidal method.
(§4) The sample size for this study was based on consideration of the precision in the comparison of PK parameters, represented by the 90% confidence interval (CI) of the geometric mean ratios of Cmax and AUC of fedratinib. […] Only participants with valid PK data were included in the summary statistics and statistical analysis.
(§5) To compare the PK parameters and estimated relative bioavailability of fedratinib following different administration methods in each study part (treatment 1B to 1A, and treatment 2B and 2C to 2A), a linear mixed-effect model with treatment, period, and sequence as fixed effects and participant nested within sequence as a random effect was fitted to the natural log-transformed PK parameters (Cmax, AUC0–t, and AUC0–∞) for use in estimation of effects and construction of CIs.
In study parts 1 and 2, point estimates and 90% CI for the difference between test and reference treatments was exponentiated, and the ratio of geometric means (test/reference) and associated 90% CI was presented on the original scale. For comparison of treatment 2C to 2A in study part 2, the relative bioavailability assessment was based on only AUC. For Tmax, the difference between test and reference was assessed for significance using Wilcoxon signed-rank test. […]

[2] = Phase 1 relative bioavailability study part 2: plasma pharmacokinetics of fedratinib (3-period crossover); format: in vivo, human
Procedure: Study part 2 was a 3-period, 6-sequence, open-label, crossover design (Fig. 1B). Treatment 2A (reference) consisted of fedratinib 400 mg (4 × 100-mg capsules) administered orally alongside a nutritional supplement. Treatment 2B (test) consisted of fedratinib 400 mg dispersed in the nutritional supplement (180 mL, Ensure Plus), administered via nasogastric tube, and flushed with 60 mL of sterile water. Treatment 2C (test) consisted of fedratinib 400 mg as a divided dose (2 × 100-mg capsules BID) administered alongside the nutritional supplement. Participants were randomized to receive treatment in one of the following sequences: 2A–2B–2C, 2A–2C–2B, 2B–2A–2C, 2B–2C–2A, 2C–2A–2B, or 2C–2B–2A. […] In the case of an evening (second) dose in the divided dosing plan of treatment 2C, participants were directed to pre-fast at least 2 h before fedratinib dose, and 4 h after fedratinib dose, with water restricted from approximately 2 h before and 1 h after dosing, excluding water given with the treatment.
as §1, §2, §3, §4
as §5, with “CIs. […]” for “CIs.”

[3] = Treatment 1B vs 1A (dispersed oral vs intact capsules), linear mixed-effect model
[4] = Treatment 2B vs 2A (nasogastric tube vs intact capsules), linear mixed-effect model
[5] = Treatment 2C: 400 mg oral divided dose (2 × 100-mg capsules BID) with nutritional supplement, after second dose, n = 30

## Cc1cnc(Nc2ccc(OCCN3CCCC3)cc2)nc1Nc1cccc(S(=O)(=O)NC(C)(C)C)c1 [fedratinib]
[1]; [3]
  AUC0–∞ geometric mean ratio (90% CI): 1.009 (0.939–1.085)
  Cmax geometric mean ratio (90% CI): 1.059 (0.969–1.157)
[1]; Treatment 1A: single 400 mg oral, 4 × 100-mg intact capsules with nutritional supplement, n = 27, read-out: AUC0–t, geometric mean (Geo. %CV)
  AUC(0-t): 20000 ng·h/mL
[1]; Treatment 1A: single 400 mg oral, 4 × 100-mg intact capsules with nutritional supplement, n = 27, read-out: AUC0–∞, geometric mean (Geo. %CV)
  AUC(0-inf): 22100 ng·h/mL
[1]; Treatment 1A: single 400 mg oral, 4 × 100-mg intact capsules with nutritional supplement, n = 27, read-out: Cmax, geometric mean (Geo. %CV)
  Cmax: 1320 ng/mL
[1]; Treatment 1A: single 400 mg oral, 4 × 100-mg intact capsules with nutritional supplement, n = 27, read-out: Tmax, median (range)
  Tmax: 2.1 h
[1]; Treatment 1A: single 400 mg oral, 4 × 100-mg intact capsules with nutritional supplement, n = 27
  half-life: 103 h
[1]; Treatment 1A: single 400 mg oral, intact capsules with nutritional supplement, n = 27, read-out: AUC0–t, geometric mean (statistical analysis)
  AUC(0-t): 20400 ng·h/mL
[1]; Treatment 1A: single 400 mg oral, intact capsules with nutritional supplement, n = 27, read-out: AUC0–∞, geometric mean (statistical analysis)
  AUC(0-inf): 22500 ng·h/mL
[1]; Treatment 1A: single 400 mg oral, intact capsules with nutritional supplement, n = 27, read-out: Cmax, geometric mean (statistical analysis)
  Cmax: 1350 ng/mL
[1]; Treatment 1A: single 400 mg oral, intact capsules with nutritional supplement, n = 27, read-out: Tmax, median (statistical analysis)
  Tmax: 2.57 h
[1]; Treatment 1B: single 400 mg oral, capsule contents dispersed in nutritional supplement, n = 26, read-out: AUC0–t, geometric mean (Geo. %CV)
  AUC(0-t): 20500 ng·h/mL
[1]; Treatment 1B: single 400 mg oral, capsule contents dispersed in nutritional supplement, n = 26, read-out: AUC0–t, geometric mean (statistical analysis)
  AUC(0-t): 20500 ng·h/mL
[1]; Treatment 1B: single 400 mg oral, capsule contents dispersed in nutritional supplement, n = 26, read-out: AUC0–∞, geometric mean (Geo. %CV)
  AUC(0-inf): 22700 ng·h/mL
[1]; Treatment 1B: single 400 mg oral, capsule contents dispersed in nutritional supplement, n = 26, read-out: AUC0–∞, geometric mean (statistical analysis)
  AUC(0-inf): 22700 ng·h/mL
[1]; Treatment 1B: single 400 mg oral, capsule contents dispersed in nutritional supplement, n = 26, read-out: Cmax, geometric mean (Geo. %CV)
  Cmax: 1430 ng/mL
[1]; Treatment 1B: single 400 mg oral, capsule contents dispersed in nutritional supplement, n = 26, read-out: Cmax, geometric mean (statistical analysis)
  Cmax: 1430 ng/mL
[1]; Treatment 1B: single 400 mg oral, capsule contents dispersed in nutritional supplement, n = 26, read-out: Tmax, median (statistical analysis)
  Tmax: 2 h
[1]; Treatment 1B: single 400 mg oral, capsule contents dispersed in nutritional supplement, n = 26
  half-life: 98.7 h
[2]; [4]
  AUC0–∞ geometric mean ratio (90% CI): 0.863 (0.816–0.912)
  Cmax geometric mean ratio (90% CI): 0.898 (0.837–0.963)
[2]; Treatment 2C vs 2A (divided dose vs intact capsules QD), linear mixed-effect model
  AUC0–∞ geometric mean ratio (90% CI): 0.850 (0.804–0.899)
[2]; [5]
  Cmax2, geometric mean (Geo. %CV): 487.3^b (44.0) ng/mL
  Tmax2, median (range): 3.9^b (1.0–6.0) h
[2]; human, plasma, oral, 400 mg, Treatment 2C: 400 mg divided dose (2 × 100-mg capsules BID), after first dose, n = 30, read-out: Cmax, geometric mean (statistical analysis)
  Cmax: 641 ng/mL
